The term mortality denotes the share of the test organisms that died.

Common to all, as to type: in vivo
Series [1] relates to Cabbage Looper (Trichoplusia ni) ("CL"). The series is described as follows: Bioassay on cabbage looper (CL), 128-well diet tray assay. To be noted: for pest or weed control at 50 µg/cm2: Table ABC (FB), activity rating class, read-out: CL (Biological Results, Insect species); for mortality at 50 µg/cm2: 168 h, 50 μg/cm^2 on artificial diet, second instar CL larvae, 25° C., five to seven days, average of eight wells, read-out: CL % Control (or Mortality) rating. The gist of the method:
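Percent mortality, averaged across eight replicate wells, was read after five to seven days at 25 °C under a 14:10 photoperiod. Each well held one to five second-instar T. ni on diet carrying a dried 50 μg/cm^2 dose applied in acetone-water 90:10.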

Series [2] concerns Beet Armyworm (Spodoptera exigua) ("BAW"). The series is described as follows: Bioassay on beet armyworm (BAW), 128-well diet tray assay. The note with it: for pest or weed control at 50 µg/cm2: Table ABC (FB), activity rating class, read-out: BAW (Biological Results, Insect species); for mortality at 50 µg/cm2: 168 h, 50 μg/cm^2 on artificial diet, second instar BAW larvae, 25° C., five to seven days, average of eight wells, read-out: BAW % Control (or Mortality) rating. The gist of the method:
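Percent mortality, averaged across eight wells, was read after five to seven days at 25° C. under 14:10 light-dark. Each well held one to five second-instar larvae on artificial diet that had been treated with 50 μg/cm^2 compound in 90:10 acetone-water and dried.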

Series [3] concerns Yellow Fever Mosquito "YFM" (Aedes aegypti). The note with it: for YFM (Biological Results, Insect species): Table ABC (FB), activity rating class; for YFM % Control (or Mortality) rating: about 1 day-old larvae, 96-well plate, room temperature, 3 days. As to the method: Certain molecules disclosed in this document were tested against YFM using procedures described in the following paragraph. In the reporting of the results, the “YFM Rating Table” was used (See Table Section).
Master plates containing 400 μg of a molecule dissolved in 100 μL of dimethyl sulfoxide (DMSO) (equivalent to a 4000 ppm solution) are used. A master plate of assembled molecules contains 15 μL per well. To this plate, 135 μL of a 90:10 wateracetone mixture is added to each well. A robot (Biomek® NXP Laboratory Automation Workstation) is programmed to dispense 15 μL aspirations from the master plate into an empty 96-well shallow plate (“daughter” plate). There are 6 reps (“daughter” plates) created per master. The created daughter plates are then immediately infested with YFM larvae.
The day before plates are to be treated, mosquito eggs are placed in Millipore water containing liver powder to begin hatching (4 g. into 400 mL). After the daughter plates are created using the robot, they are infested with 220 μL of the liver powder/larval mosquito mixture (about 1 day-old larvae). After plates are infested with mosquito larvae, a non-evaporative lid is used to cover the plate to reduce drying. Plates are held at room temperature for 3 days prior to grading. After 3 days, each well is observed and scored based on mortality.

`CCc1cc(C)ccc1N1/C(=N/C(=O)NCCc2ccc(-c3ncn(-c4ccc(OC(F)(F)F)cc4)n3)cc2)SCC1C` (stereo not drawn) [FB56, (Z)-1-(3-(2-ethyl-4-methylphenyl)-4-methylthiazolidin-2-ylidene)-3-(4-(1-(4-(trifluoromethoxy)phenyl)-1H-1,2,4-triazol-3-yl)phenethyl)urea]: the pest or weed control at 50 µg/cm2 in series [1] and in series [2] was 50 to 100% each time. Also, the “YFM (Biological Results, Insect species)” value in series [3] is on record as “A (80-100)”.
Consider `CC(C)c1cc(F)ccc1N1/C(=N/C(=O)NCCc2ccc(-c3ncn(-c4ccc(OC(F)(F)F)cc4)n3)cc2)SCC1C` (stereo not drawn) [FB57], for which the pest or weed control at 50 µg/cm2 in series [1] and in series [2] was 50 to 100% each time. For the same molecule, the “YFM (Biological Results, Insect species)” value in series [3] is listed as “A (80-100)”.
Regarding `COc1ccc(N2/C(=N/C(=O)NCCc3ccc(-c4ncn(-c5ccc(OC(F)(F)F)cc5)n4)cc3)SCC2C)c(C)c1` (stereo not drawn) [FB58, (Z)-1-(3-(4-methoxy-2-methylphenyl)-4-methylthiazolidin-2-ylidene)-3-(4-(1-(4-(trifluoromethoxy)phenyl)-1H-1,2,4-triazol-3-yl)phenethyl)urea], the pest or weed control at 50 µg/cm2 in series [1] and in series [2] was 50 to 100% in each case. Moreover, the “YFM (Biological Results, Insect species)” value in series [3] is recorded as “A (80-100)”.
With `Cc1cccc(C)c1N1/C(=N/C(=O)NCCc2ccc(-c3ncn(-c4ccc(OC(F)(F)F)cc4)n3)cc2)SCC1C` (stereo not drawn) [FB59, (Z)-1-(3-(2,6-dimethylphenyl)-4-methylthiazolidin-2-ylidene)-3-(4-(1-(4-(trifluoromethoxy)phenyl)-1H-1,2,4-triazol-3-yl)phenethyl)urea], the pest or weed control at 50 µg/cm2 in series [1] and in series [2] was 50 to 100% in each case. Also, in series [3], the “YFM (Biological Results, Insect species)” value is listed as “A (80-100)”.
With `Cc1ccc(N2/C(=N/C(=O)NCCc3ccc(-c4ncn(-c5ccc(OC(F)(F)F)cc5)n4)cc3)SCC2C)c(C(C)C)c1` (stereo not drawn) [FB60, (Z)-1-(3-(2-isopropyl-4-methylphenyl)-4-methylthiazolidin-2-ylidene)-3-(4-(1-(4-(trifluoromethoxy)phenyl)-1H-1,2,4-triazol-3-yl)phenethyl)urea], the pest or weed control at 50 µg/cm2 in series [1] and in series [2] was 50 to 100% throughout. Besides, in series [3], the “YFM (Biological Results, Insect species)” value is “A (80-100)”.
As for `C=CCN(CCc1ccc(-c2ncn(-c3ccc(OC(F)(F)F)cc3)n2)cc1)C(=O)/N=C1\SCC(=O)N1c1cc(C)ccc1C(C)C` [FB61], the pest or weed control at 50 µg/cm2 in series [1] and in series [2] was 50 to 100% throughout. Further, in series [3], the “YFM (Biological Results, Insect species)” value is recorded as “A (80-100)”.
As to `Cc1ccc(C(C)C)c(N2C(=O)CS/C2=N\C(=O)N(CCc2ccc(-c3ncn(-c4ccc(OC(F)(F)F)cc4)n3)cc2)CC2CC2)c1` [FB62, (Z)-1-(cyclopropylmethyl)-3-(3-(2-isopropyl-5-methylphenyl)-4-oxothiazolidin-2-ylidene)-1-(4-(1-(4-(trifluoromethoxy)phenyl)-1H-1,2,4-triazol-3-yl)phenethyl)urea], the pest or weed control at 50 µg/cm2 in series [1] and in series [2] was 50 to 100% in each case. The “YFM (Biological Results, Insect species)” value in series [3] was “A (80-100)”.
As to `Cc1ccc(C(C)C)c(N2C(=O)CS/C2=N\C(=O)NC2(Cc3ccc(-c4ncn(-c5ccc(OC(F)(F)F)cc5)n4)cc3)CC2)c1` [FB63, (Z)-1-(3-(2-isopropyl-5-methylphenyl)-4-oxothiazolidin-2-ylidene)-3-(1-(4-(1-(4-(trifluoromethoxy)phenyl)-1H-1,2,4-triazol-3-yl)benzyl)cyclopropyl)urea], the pest or weed control at 50 µg/cm2 in series [1] and in series [2] was 50 to 100% each time. Besides, in series [3], the “YFM (Biological Results, Insect species)” value is recorded as “A (80-100)”.
For the molecule `CS/C(=N\C(=O)NCCc1ccc(-c2ncn(-c3ccc(OC(F)(F)F)cc3)n2)cc1)Nc1cc(C)ccc1C(C)C` [FB65, (Z)-methyl N-(2-isopropyl-5-methylphenyl)-N′-((4-(1-(4-(trifluoromethoxy)phenyl)-1H-1,2,4-triazol-3-yl)phenethyl)carbamoyl)carbamimidothioate], the pest or weed control at 50 µg/cm2 in series [1] and in series [2] was 50 to 100% throughout. In series [3], the “YFM (Biological Results, Insect species)” value is “A (80-100)”.
As to `Cc1ccc(C(C)C)c(N2/C(=N/C(=O)NCCc3ccc(-c4ncn(-c5ccc(OC(F)(F)F)cc5)n4)cc3)SCC2(C)O)c1` (stereo not drawn) [FB67, (Z)-1-(4-hydroxy-3-(2-isopropyl-5-methylphenyl)-4-methylthiazolidin-2-ylidene)-3-(4-(1-(4-(trifluoromethoxy)phenyl)-1H-1,2,4-triazol-3-yl)phenethyl)urea], the pest or weed control at 50 µg/cm2 in series [1] and in series [2] was 50 to 100% each time. For the same molecule, in series [3], the “YFM (Biological Results, Insect species)” value is “A (80-100)”.
For `Cc1ccc(C(C)C)c(N2C(=O)CS/C2=N\C(=O)NCC(Br)c2ccc(-c3ncn(-c4ccc(OC(F)(F)F)cc4)n3)cc2)c1` (stereo not drawn) [FB71, (Z)-1-(2-bromo-2-(4-(1-(4-(trifluoromethoxy)phenyl)-1H-1,2,4-triazol-3-yl)phenyl)ethyl)-3-(3-(2-isopropyl-5-methylphenyl)-4-oxothiazolidin-2-ylidene)urea], the pest or weed control at 50 µg/cm2 in series [1] and in series [2] was 50 to 100% throughout. Moreover, in series [3], the “YFM (Biological Results, Insect species)” value is recorded as “A (80-100)”.
As for `Cc1ccc(N2C(=O)CS/C2=N\C(=O)NCCc2ccc(-c3ncn(-c4ccc(OC(F)(F)F)cc4)n3)cc2)c(C(C)C)c1` [P26, (Z)-1-(3-(2-isopropyl-4-methylphenyl)-4-oxothiazolidin-2-ylidene)-3-(4-(1-(4-(trifluoromethoxy)phenyl)-1H-1,2,4-triazol-3-yl)phenethyl)urea], the mortality at 50 µg/cm2 in series [1] and in series [2] was 50 to 100% each time. For the same molecule, the “YFM % Control (or Mortality) rating” value in series [3] is reported as “A (80-100)”.
For `Cc1cccc(N2C(=O)CS/C2=N\C(=O)NCCc2ccc(-c3ncn(-c4ccc(OC(F)(F)F)cc4)n3)cc2)c1C(C)C` [P27, (Z)-1-(3-(2-isopropyl-3-methylphenyl)-4-oxothiazolidin-2-ylidene)-3-(4-(1-(4-(trifluoromethoxy)phenyl)-1H-1,2,4-triazol-3-yl)phenethyl)urea], the mortality at 50 µg/cm2 in series [1] and in series [2] was 50 to 100% in each case. Moreover, the “YFM % Control (or Mortality) rating” value in series [3] is “A (80-100)”.
`CCCc1ccc(C)cc1N1C(=O)CS/C1=N\C(=O)NCCc1ccc(-c2ncn(-c3ccc(OC(F)(F)F)cc3)n2)cc1` [P29, (Z)-1-(3-(5-methyl-2-propylphenyl)-4-oxothiazolidin-2-ylidene)-3-(4-(1-(4-(trifluoromethoxy)phenyl)-1H-1,2,4-triazol-3-yl)phenethyl)urea]: the mortality at 50 µg/cm2 in series [1] and in series [2] was 50 to 100% in each case. Further, the “YFM % Control (or Mortality) rating” value in series [3] was “A (80-100)”.
Regarding `CC(C)(C)c1ccccc1N1C(=O)CS/C1=N\C(=O)NCCc1ccc(-c2ncn(-c3ccc(OC(F)(F)F)cc3)n2)cc1` [P30, (Z)-1-(3-(2-(tert-butyl)phenyl)-4-oxothiazolidin-2-ylidene)-3-(4-(1-(4-(trifluoromethoxy)phenyl)-1H-1,2,4-triazol-3-yl)phenethyl)urea], the mortality at 50 µg/cm2 in series [1] and in series [2] was 50 to 100% in each case. Besides, the “YFM % Control (or Mortality) rating” value in series [3] is on record as “A (80-100)”.

The record behind these values is US9783532B2, “Molecules having certain pesticidal utilities, and intermediates, compositions, and processes related thereto” (Dow AgroSciences LLC, priority 2013, dated 2017).
